Patent US20100028419A1, “MEMBRANE(S) AND USES THEREOF” (priority 2007, published 2010)

What was measured:
MCF-7 cells = test: In vitro transfection: uptake of fragmented ODN-cubic membrane complexes, fluorescence microscopy and TEM; assay type: cell-based, human; conditions: 5 h
Protocol: Isolated mitochondria pellets (from fed, 10 days starved Chaos cells and mice liver) from Example 1 and transfected MCF-7 cell pellet prepared according to Example 4 were studied by the conventional TEM technique. Samples in the pellet forms were first fixed individually with 2.5% glutaraldehyde in 1×PBS at 4° C. After washing 4 times with 1×PBS buffer over 1 h to remove glutaraldehyde, the samples were post-fixed with 1% osmium tetroxide in 1× PBS buffer (pH 7.4) for 20 min at room temperature. The specimens were then washed 4 times with the 1×PBS buffer at 4° C. Thereafter 3% gelatin in PBS was added for 30 min before spinning down to collect the pellets at 2,500 rpm for 5 min. The specimens were stored at 4° C. overnight and the steps of adding 2.5% glutaraldehyde in PBS and washing with PBS were repeated for another cycle. The bigger specimens were trimmed into small cubes (1 mm in length) and washed with distilled water for 5 min. Dehydration through ethanol series was done using ethanol of 25%, 50%, 75%, 95% and 100% for 10 min each at room temperature. The specimens were then infiltrated with 100% acetone: resin in 1:1 ratio for 30 min at room temperature and with 100% acetone: resin in 1:6 ratio overnight. […]
There were three negative controls. […] The remaining cells were viewed 5 h post-transfection under the fluorescence microscope for the uptake of tagged-ODNs.

amoeba Chaos cells = test: Continuous addition of DPA (C22:5) into amoeba culture medium, TEM study; assay type: cell-based, Chaos carolinense; conditions: 0.1 mM final concentration, fed Chaos cells with Paramecium present, 3 additions on alternate days, fixed at day 5
Protocol: All-cis-4,7,10,13,16 Docosapentaneoic Acid (DPA, C22:5n-6) (Sigma) and Cis-7,10,13,16,19 DPA (C22:5n-3) (Sigma) were dissolved in Diethyl Ether and added to the amoeba culture media at a final concentration of 0.1 mM. DPA (n-3) and DPA (n-6) were added separately after amoeba washing and in the presence of the food organisms (Paramecium multimicronucleatum). The procedure was performed every alternative day for a total of 3 times according to the regular feeding schedule. At day 5 post-DPA treatment Chaos cells were fixed in 2.5% glutaraldehyde for TEM processing according to the procedure described in Example 6.

Compound | inclusion bodies in cells (TEM) (MCF-7 cells) | inner mitochondrial membrane transformation to cubic organization (TEM) (amoeba Chaos cells)
5′ tct ccc agc gtg cgc cat 3′ (DNA TCTCCCAGCGTGCGCCAT; chemistry not given here) [naked ODNs] | no inclusion bodies observed | 
CCCCC/C=C\C/C=C\C/C=C\C/C=C\C/C=C\CCC(=O)O [DPA (n-6), All-cis-4,7,10,13,16 Docosapentaneoic Acid] |  | enhanced their inner mitochondrial membrane transformation from random tubular (A) to cubic organization (D)
CC/C=C\C/C=C\C/C=C\C/C=C\C/C=C\CCCCCC(=O)O [DPA (n-3), Cis-7,10,13,16,19 DPA] |  | did not have the same drastic effects on the inner mitochondrial membrane organization
